Among the data in ChEMBL document CHEMBL1201862, “PubChem BioAssay data set” (2004) are AC50 and IC50 values, retold here.

In one experiment the test system is BHK-21. Nature of the experiment: BHK-21 cell toxicity, dose response, cytotoxicity control, plate reader, cherry-pick samples (AID 687030). The settings on record: Mesocricetus auratus. It counts as functional, cell-based.
For experiment [1], the target named is Nuclear receptor subfamily 0 group B member 1 (Homo sapiens, UniProt P51843). It counts as functional, cell-based.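 Note: HEK293T cells transfected with SF-1 and DAX-1 plus StAR promoter luciferase reporter.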
The nature of the next experiment: cells. The format is functional, cell-based.
A short description of experiment [2]: HepG2 cell cytotoxicity, dose response, cytotoxicity control, plate reader, cherry-pick, antagonist series (AID 743416). The format is functional, cell-based.
The nature of experiment [3]: MC4R antagonists, dose response, counter-screen for LGR2 antagonist project, cell-based, plate reader, cherry pick (AID 743444).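 Note: transfected HEK 293 cells stimulated with alpha-MSH peptide; potency of inhibitors of the alpha-MSH evoked signal.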 The format is functional. (In general: A counterscreen serves to expose hits that act by an unwanted route or on another target.)
Experiment [4] in a line: A549 cell cytotoxicity, dose response, cytotoxicity control, plate reader, cherry-pick, antagonist series (AID 743412). It counts as functional, cell-based.
Experiment [5] is described as follows: LGR2 antagonists, dose response, cell-based, HEK293, CRE-luciferase reporter, cherry pick (AID 743342). The format is functional. In general terms: Reporter assays use an easily measured gene product as a stand-in for the process of interest.
Experiment [6] is described as follows: A375 melanoma cell cytotoxicity, dose response, counter-screen for MITF inhibitor project, CellTiter-Glo luminescence, dry powder, set 2 (AID 624489).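 Note: actives are compounds lowering A375 viability meaning general cytotoxicity.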 The settings on record: A-375. It counts as functional, cell-based.
Experiment [7] in a line: A375 melanoma cell viability loss, dose response, counter-screen for MITF inhibitor project, CellTiter-Glo luminescence, dry powder, set 4 (AID 624364).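 Note: A375 melanoma cells are MITF independent so this is a counter screen.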 The format is functional, cell-based. To be noted: A-375.
The next experiment deals with NS3 (Hepatitis C virus, UniProt A3EZJ3). Nature of the experiment: HCV NS3 helicase inhibitor potency, dose response, biochemical, fluorescence polarization, ChemBridge library (AID 743264). A general note: In fluorescence polarisation assays a small probe gives low polarisation when free and higher when bound to something large.
The next experiment has as its target Fatty acid synthase (Homo sapiens, UniProt P49327). Nature of the experiment: FAS thioesterase domain inhibitors, SAR follow-up, biochemical, endpoint fluorescence intensity, powder samples (AID 652164). It counts as functional.
A short description of experiment [8]: Late stage assay provider results from the probe development effort to identify inhibitors of the Plasmodium falciparum M18 Aspartyl Aminopeptidase (M18AAP): radiolabel-based cell-based dose response assay to identify compounds that inhibit P. falciparum growth in RBCs, Set 2.. The format is functional.
Experiment [9] in a line: T. cruzi growth inhibition in host cells, dose response, cell-based, plate reader, dry powder, set 2 (AID 652275). The format is functional.
A short description of experiment [10]: MITF: Counter assay: A375 proliferation Measured in Cell-Based System Using Plate Reader - 2084-03_Inhibitor_Dose_DryPowder_Activity_Set8. The format is functional. The settings on record: A-375.
A short description of experiment [11]: MITF Orthogonal Assay: SK-MEL-5 CTG Assay Measured in Cell-Based System Using Plate Reader - 2084-02_Inhibitor_Dose_DryPowder_Activity_Set7. It counts as functional.
Experiment [12] is described as follows: TRPM1 promoter luciferase reporter signal decrease, dose response, MITF inhibitor project, cell-based, SK-MEL-5, dry powder, set 8 (AID 624430). The format is functional.

Activity calls are given as the source filed them.

Nuclear receptor subfamily 0 group B member 1, sequence (P51843 whole entry): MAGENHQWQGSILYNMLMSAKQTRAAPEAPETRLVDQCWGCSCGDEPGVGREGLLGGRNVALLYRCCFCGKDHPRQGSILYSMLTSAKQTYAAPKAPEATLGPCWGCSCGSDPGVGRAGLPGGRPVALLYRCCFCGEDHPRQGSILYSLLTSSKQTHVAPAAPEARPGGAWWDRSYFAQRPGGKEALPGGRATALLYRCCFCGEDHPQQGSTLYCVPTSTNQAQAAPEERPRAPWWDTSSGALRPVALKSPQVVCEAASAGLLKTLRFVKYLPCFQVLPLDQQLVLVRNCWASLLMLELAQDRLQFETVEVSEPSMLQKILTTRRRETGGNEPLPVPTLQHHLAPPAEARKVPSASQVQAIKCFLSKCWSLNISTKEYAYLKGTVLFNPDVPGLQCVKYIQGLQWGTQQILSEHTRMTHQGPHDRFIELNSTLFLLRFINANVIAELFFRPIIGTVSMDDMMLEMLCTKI
Fatty acid synthase, sequence (P49327 whole entry, the tested form may be a part): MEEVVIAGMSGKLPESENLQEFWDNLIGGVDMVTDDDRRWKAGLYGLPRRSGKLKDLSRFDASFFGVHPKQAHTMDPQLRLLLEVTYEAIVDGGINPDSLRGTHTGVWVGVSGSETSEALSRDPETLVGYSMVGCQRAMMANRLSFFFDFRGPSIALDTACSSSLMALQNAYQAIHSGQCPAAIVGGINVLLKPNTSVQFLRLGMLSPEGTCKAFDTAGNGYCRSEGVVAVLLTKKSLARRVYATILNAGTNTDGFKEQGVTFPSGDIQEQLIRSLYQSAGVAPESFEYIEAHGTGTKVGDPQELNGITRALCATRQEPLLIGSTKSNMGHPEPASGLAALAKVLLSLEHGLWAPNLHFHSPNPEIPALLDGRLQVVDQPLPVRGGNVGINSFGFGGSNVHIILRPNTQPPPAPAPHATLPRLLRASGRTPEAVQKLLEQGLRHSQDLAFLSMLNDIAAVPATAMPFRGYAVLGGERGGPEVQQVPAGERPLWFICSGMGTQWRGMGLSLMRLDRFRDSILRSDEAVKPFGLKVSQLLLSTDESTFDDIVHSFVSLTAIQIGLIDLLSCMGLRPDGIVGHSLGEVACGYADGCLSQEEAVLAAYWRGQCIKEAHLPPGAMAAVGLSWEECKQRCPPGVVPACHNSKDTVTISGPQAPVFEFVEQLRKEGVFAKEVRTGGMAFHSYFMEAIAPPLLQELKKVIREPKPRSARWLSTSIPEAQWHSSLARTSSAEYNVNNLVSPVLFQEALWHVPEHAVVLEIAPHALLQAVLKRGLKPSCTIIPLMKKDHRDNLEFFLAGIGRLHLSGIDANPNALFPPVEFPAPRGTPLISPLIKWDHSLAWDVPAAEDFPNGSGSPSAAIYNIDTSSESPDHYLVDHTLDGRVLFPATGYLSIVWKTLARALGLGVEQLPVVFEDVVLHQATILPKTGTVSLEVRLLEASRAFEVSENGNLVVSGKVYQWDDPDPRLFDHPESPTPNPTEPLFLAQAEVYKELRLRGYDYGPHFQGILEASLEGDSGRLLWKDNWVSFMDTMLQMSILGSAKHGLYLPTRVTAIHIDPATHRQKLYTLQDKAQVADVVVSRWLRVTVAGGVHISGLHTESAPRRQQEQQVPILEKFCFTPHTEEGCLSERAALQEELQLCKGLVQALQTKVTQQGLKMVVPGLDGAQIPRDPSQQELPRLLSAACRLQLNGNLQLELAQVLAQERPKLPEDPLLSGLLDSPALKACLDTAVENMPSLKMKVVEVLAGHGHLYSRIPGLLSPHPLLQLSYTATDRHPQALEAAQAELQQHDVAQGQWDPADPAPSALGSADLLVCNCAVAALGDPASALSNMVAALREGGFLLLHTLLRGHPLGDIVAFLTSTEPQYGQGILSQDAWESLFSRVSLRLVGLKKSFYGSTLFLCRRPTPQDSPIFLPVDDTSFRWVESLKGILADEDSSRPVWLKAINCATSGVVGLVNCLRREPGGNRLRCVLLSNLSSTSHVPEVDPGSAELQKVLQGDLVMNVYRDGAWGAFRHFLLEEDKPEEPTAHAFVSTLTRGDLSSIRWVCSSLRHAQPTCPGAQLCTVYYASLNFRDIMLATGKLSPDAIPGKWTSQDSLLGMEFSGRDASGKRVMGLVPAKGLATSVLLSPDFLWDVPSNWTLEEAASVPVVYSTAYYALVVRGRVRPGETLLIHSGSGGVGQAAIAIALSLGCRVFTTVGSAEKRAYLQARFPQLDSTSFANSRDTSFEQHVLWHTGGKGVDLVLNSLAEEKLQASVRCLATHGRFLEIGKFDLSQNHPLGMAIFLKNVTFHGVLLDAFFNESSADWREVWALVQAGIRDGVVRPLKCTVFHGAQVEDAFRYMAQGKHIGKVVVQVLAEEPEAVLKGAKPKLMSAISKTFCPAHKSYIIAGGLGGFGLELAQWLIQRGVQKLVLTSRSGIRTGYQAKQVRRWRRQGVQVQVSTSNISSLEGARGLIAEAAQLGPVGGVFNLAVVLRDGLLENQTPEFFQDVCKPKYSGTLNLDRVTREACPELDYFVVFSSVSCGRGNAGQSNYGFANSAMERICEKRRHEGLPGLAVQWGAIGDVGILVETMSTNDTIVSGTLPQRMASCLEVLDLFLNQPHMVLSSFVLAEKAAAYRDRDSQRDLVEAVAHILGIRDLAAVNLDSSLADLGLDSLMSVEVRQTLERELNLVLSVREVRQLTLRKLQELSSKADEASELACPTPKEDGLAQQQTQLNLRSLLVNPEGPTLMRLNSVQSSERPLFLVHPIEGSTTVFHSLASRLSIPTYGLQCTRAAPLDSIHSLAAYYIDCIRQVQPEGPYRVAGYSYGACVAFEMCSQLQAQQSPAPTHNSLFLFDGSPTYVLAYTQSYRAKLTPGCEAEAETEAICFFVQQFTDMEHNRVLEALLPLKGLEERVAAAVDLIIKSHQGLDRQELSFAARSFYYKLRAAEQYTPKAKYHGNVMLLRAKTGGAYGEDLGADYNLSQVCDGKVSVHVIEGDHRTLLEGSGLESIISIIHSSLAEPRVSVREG
NS3, sequence (A3EZJ3 whole entry, the tested form may be a part): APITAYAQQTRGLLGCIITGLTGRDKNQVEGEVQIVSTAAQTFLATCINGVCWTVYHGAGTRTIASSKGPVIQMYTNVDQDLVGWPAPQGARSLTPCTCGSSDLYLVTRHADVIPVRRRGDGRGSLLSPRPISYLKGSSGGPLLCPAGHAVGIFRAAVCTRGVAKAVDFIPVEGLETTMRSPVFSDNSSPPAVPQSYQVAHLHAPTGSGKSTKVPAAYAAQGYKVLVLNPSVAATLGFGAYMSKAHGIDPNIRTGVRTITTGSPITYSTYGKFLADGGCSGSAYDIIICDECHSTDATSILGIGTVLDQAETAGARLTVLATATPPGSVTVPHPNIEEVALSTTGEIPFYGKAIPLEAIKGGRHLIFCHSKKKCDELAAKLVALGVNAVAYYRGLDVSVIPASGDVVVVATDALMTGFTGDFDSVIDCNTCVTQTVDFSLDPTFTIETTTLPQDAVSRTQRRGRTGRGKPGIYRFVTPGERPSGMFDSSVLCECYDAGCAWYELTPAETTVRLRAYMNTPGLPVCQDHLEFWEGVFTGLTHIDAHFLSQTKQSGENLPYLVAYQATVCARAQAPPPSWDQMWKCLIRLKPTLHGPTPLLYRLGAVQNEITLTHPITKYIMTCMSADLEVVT

Usually AC50 stands for the concentration giving half of the maximal activity seen. As to `CCNC(=O)C[C@H]1CC[C@@H]2[C@H](COC[C@H](O)CN2Cc2ccc(Cl)c(Cl)c2)O1`, the AC50 in the experiment with BHK-21 is 36.8 µM (active).
The IC50 is the concentration that gives 50% inhibition. On to `C=C1CCCC2OC(CC3=CC4/C(C)=C/CC(C)CC(/C=C(\C)C(O)C5CC(O)C(O)C(CCC(O)/C=C/C(C)=C/CCC6=NCCC(C3)C64C)O5)OC(=O)CC3OC(C(O)C1)C(O)C3O)CC(O)C2O` (stereo unspecified), for which the IC50 (in experiment [1]; in “cells”) was > 67.5 µM (inactive) in each case.
For the compound `C[C@H](CO)N1C[C@H](C)[C@H](CN(C)C(=O)Nc2ccc(C(F)(F)F)cc2)OCCCC[C@H](C)Oc2ccc(NC(=O)NC3CCCCC3)cc2C1=O`, the AC50 was > 52 µM (inactive) in [2], 0.898 µM (active) in experiment [3], > 52 µM (inactive) in experiment [4] and 8.74 µM (active) in [5].
Consider `CCN1CCN(C2=C(NC(=O)c3ccc(Br)cc3)C(=O)c3ccccc3C2=O)CC1`, for which the results for the AC50 in experiment [6] and in experiment [7] were 6.71 µM (active) and 15.2 µM (active), respectively.
Take `CC1=C(C#N)c2nc(N)c(C#N)c(C)c2C1=Cc1ccc(-c2cccc(C(=O)O)c2)o1`: the IC50 at NS3 is 143 µM (active).
In the case of `CCCCC(=O)Nc1nc(-c2cccc(S(=O)(=O)N3CCOCC3)c2)cs1`, the IC50 at Fatty acid synthase is 20.2 µM (inactive).
Take `Oc1ccc(C2CCN(c3ccnc4ccccc34)CC2)cc1O`: the IC50 in experiment [8] was 1.3 µM (active).
As to `O=C(C1CCCC1)N1CCCCN2[C@@H](CO)[C@H](c3ccc(-c4cccc(F)c4)cc3)[C@@H]2C1`, the AC50 in experiment [9] was 0.121 µM (active).
For `O=C1C(Nc2cccc(Br)c2)=C(N2CCCCC2)C(=O)c2ccccc21`, the AC50 in [10] was > 70 µM (inactive); in experiment [11], 19.7 µM (active); in experiment [12], 9.81 µM (active).
